Consider one molecule from publication PMC6270165, “Synthesis and Biological Evaluation of 3-Benzisoxazolyl-4-indolylmaleimides as Potent, Selective Inhibitors of Glycogen Synthase Kinase-3β” (Molecules, 2013).

One test deals with T1, GSK-3β (Homo sapiens, UniProt P49841).
T1 construct: GST (N, cleaved yes); made in house; host or cells: Escherichia coli BL21-Codon Plus (DE3)
In words: GSK-3β kinase assay (Z'-LYTE Kinase Assay kit Ser/Thr 9 Peptide). The format is biochemical. To be noted: 50 nM enzyme, 30 μM ATP, 2 μM substrate peptide; triplicate; mean ± SE; read-out: GSK-3β inhibitory activity IC50 (nM) ± SE. How it is done: GSK3β belongs to CMGC family. Here, the other family members were used to evaluate the selectivity of GSK3β inhibitors, including PKC-epsilon (AGC family), JAK2 (TK family), Braf (TKL family), DRAK2 (CAMK family) and IKKβ (other family).The recombinant GST-GSK-3βprotein was expressed in Escherichia coli strain BL21-Codon Plus (DE3), purified by GSTrap affinity chromatography, and cleaved by thrombin. The GSK-3β kinase assay was carried out with the Z´-LYTETM Kinase Assay kit Ser/Thr 9 Peptide substrate (Invitrogen, Grand, NY, USA) in 10 μL reaction volume containing 50 nM enzyme, 30 μM ATP and 2 μM substrate peptide. Drak2 Proteins were presented by professor Jiang-ping Wu (Laboratory of Immunology, Research Centre, CHUM, Notre Dame Hospital, Pavilion DeSève). The Drak2 kinase reaction was performed in a final assay volume of 3.4 μL using the ADP-GLO Kinase Assay Kit (Promega, Madison, WI, USA), according the ADP-GLO protocol and read on an EnVision plate reader. The recombinant PKC-epsilon, IKKβ, and JAK2 with N-terminal His-tag were expressed using baculovirus expression system and purified with Ni-Beads. BRAF protein was from Carna Biosciences, Inc. (Kobe Port Island, Japan). And the related kinase reactions were performed in a final assay volume of 10 μL using the related HTRF Assay Kit (Cisbio, Codolet, France). Reactions were according the HTRF protocol and read on an EnVision plate reader. All reactions were carried out in triplicate. […] Data were expressed as mean ± SE.

In test [1] the test system is Tau phosphorylation at Ser 396 in SH-SY5Y cells. In words: Aβ25-35-induced Tau phosphorylation (Ser396) in SH-SY5Y cells, Western blotting. The format is cell-based, human. To be noted: 100 nM, inhibitors 1 hour, then Aβ25–35 6 hours, Western blot. How it is done: It has been implicated that GSK-3β is involved in multiple cellular processes, and its ability to hyperphosphorylate Tau protein and induce neurofibrillary tangle was intensively studied. Therefore, the cell-based assay examining Tau phosphorylation at Serine 396 represents a direct functional assay to measure the cellular activity of GSK-3β inhibitors. Compounds 7c, 7f, 7j–l and 7o–q were tested for the ability to reduce Tau phosphorylation at Ser 396 in human neuroblastoma SH-SY5Y cells. LiCl, a well-known inhibitor of GSK-3β [24], was used as a positive control in this assay. […] The Aβ-induced Tau hyperphosphorylation results in neurofibrillary tangle formation, which plays an important role in Alzheimer’s disease. […] In addition, the predictions about these compounds’ brain permeability were performed using ADME module with Discovery Studio 2.1 software package.
SH-SY5Y human neuroblastoma cells were obtained from the American Type Culture Collection (ATCC, Manassas, VA, USA). Cells were cultured in 1:1 DMEM:Ham's F12 containing 10% (v/v) fetal bovine serum (HyClone, Logan, UT, USA), 1% penicillin, and 1% streptomycin at a humidified atmosphere with 5% CO2. The medium was changed every 2 days. […] Antigen-antibody complexes were detected by the ECL Kit.

T1 sequence (P49841 whole entry): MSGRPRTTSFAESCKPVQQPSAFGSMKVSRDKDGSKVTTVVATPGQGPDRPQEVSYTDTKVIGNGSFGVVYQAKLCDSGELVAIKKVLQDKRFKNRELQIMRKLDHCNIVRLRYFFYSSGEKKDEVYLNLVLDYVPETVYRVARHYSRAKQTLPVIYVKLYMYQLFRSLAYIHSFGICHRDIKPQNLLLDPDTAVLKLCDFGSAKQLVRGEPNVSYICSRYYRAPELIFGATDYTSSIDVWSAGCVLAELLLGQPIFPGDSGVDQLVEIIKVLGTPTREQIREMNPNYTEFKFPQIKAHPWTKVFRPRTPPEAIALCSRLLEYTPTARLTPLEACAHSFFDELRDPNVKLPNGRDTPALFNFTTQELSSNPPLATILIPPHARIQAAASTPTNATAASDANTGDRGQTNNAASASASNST

As for `O=C1NC(=O)C(c2cn(CCCN3CCOCC3)c3cc(F)ccc23)=C1c1noc2ccccc12` [7f, 3-(Benzo[d]isoxazol-3-yl)-4-(6-fluoro-1-(3-morpholinopropyl)-1H-indol-3-yl)-1H-pyrrole-2,5-dione], the IC50 (usually the concentration that gives 50% inhibition) at GSK-3β was 127 ± 3.2 nM. For the same molecule, the “Effect on Aβ25-35-induced Tau phosphorylation at Ser 396” value in test [1] is on record as “obviously reduce”.
